Data reported in the NIST ThermoML archive (doi:10.1021/je025630q).
± gives the expanded uncertainty stated by the source.

Test: compressibility factor (dimensionless); xn = mol fraction of the nth substance listed
Conditions: Gas, Burnett expansion method

CF [fluoromethane] + O=C=O
Conditions	compressibility factor
323.15 K, 1023.9 kPa, x2 = 0.619	0.9523 ± 0.0001
323.15 K, 1109.6 kPa, x2 = 0.189	0.9349 ± 0.0001
323.15 K, 1394.9 kPa, x2 = 0.378	0.9259 ± 0.0001
323.15 K, 1451.1 kPa, x2 = 0.791	0.9369 ± 0.0001
323.15 K, 1495.6 kPa, x2 = 0.619	0.9293 ± 0.0001
323.15 K, 1606.1 kPa, x2 = 0.189	0.904 ± 0.0001
323.15 K, 2009.1 kPa, x2 = 0.378	0.8909 ± 0.0001
323.15 K, 2102.7 kPa, x2 = 0.791	0.907 ± 0.0001
323.15 K, 2158.3 kPa, x2 = 0.619	0.8959 ± 0.0001
323.15 K, 2286.6 kPa, x2 = 0.189	0.8598 ± 0.0001
323.15 K, 2838.8 kPa, x2 = 0.378	0.8409 ± 0.0001
323.15 K, 2997.8 kPa, x2 = 0.791	0.8639 ± 0.0001
323.15 K, 3058.6 kPa, x2 = 0.619	0.8482 ± 0.0001
323.15 K, 3176.6 kPa, x2 = 0.189	0.798 ± 0.0001
323.15 K, 3899.6 kPa, x2 = 0.378	0.7717 ± 0.0001
323.15 K, 4170 kPa, x2 = 0.791	0.8027 ± 0.0001
323.15 K, 4217.2 kPa, x2 = 0.619	0.7813 ± 0.0001
323.15 K, 4257.2 kPa, x2 = 0.189	0.7144 ± 0.0001
323.15 K, 5138.4 kPa, x2 = 0.378	0.6793 ± 0.0001
323.15 K, 5587.6 kPa, x2 = 0.619	0.6915 ± 0.0001
323.15 K, 5596 kPa, x2 = 0.791	0.7197 ± 0.0001
333.15 K, 120.3 kPa, x2 = 0.392	0.9924 ± 0.0001
333.15 K, 128.5 kPa, x2 = 0.793	0.9965 ± 0.0001
333.15 K, 130.5 kPa, x2 = 0.572	0.9947 ± 0.0001
333.15 K, 141.4 kPa, x2 = 0.219	0.9909 ± 0.0001
333.15 K, 179.8 kPa, x2 = 0.392	0.9911 ± 0.0001
333.15 K, 191.9 kPa, x2 = 0.793	0.9938 ± 0.0001
333.15 K, 194.8 kPa, x2 = 0.572	0.9922 ± 0.0001
333.15 K, 211.2 kPa, x2 = 0.219	0.9886 ± 0.0001
333.15 K, 268.3 kPa, x2 = 0.392	0.9879 ± 0.0001
333.15 K, 286.2 kPa, x2 = 0.793	0.9901 ± 0.0001
333.15 K, 290.4 kPa, x2 = 0.572	0.9884 ± 0.0001
333.15 K, 314.8 kPa, x2 = 0.219	0.9843 ± 0.0001
333.15 K, 399.3 kPa, x2 = 0.392	0.9824 ± 0.0001
333.15 K, 426 kPa, x2 = 0.793	0.9846 ± 0.0001
333.15 K, 432.2 kPa, x2 = 0.572	0.9824 ± 0.0001
333.15 K, 467.7 kPa, x2 = 0.219	0.977 ± 0.0001
333.15 K, 592.5 kPa, x2 = 0.392	0.9737 ± 0.0001
333.15 K, 632.5 kPa, x2 = 0.793	0.9765 ± 0.0001
333.15 K, 641.1 kPa, x2 = 0.572	0.9736 ± 0.0001
333.15 K, 692.1 kPa, x2 = 0.219	0.9657 ± 0.0001
333.15 K, 874.8 kPa, x2 = 0.392	0.9605 ± 0.0001
333.15 K, 935.3 kPa, x2 = 0.793	0.9647 ± 0.0001
333.15 K, 946.8 kPa, x2 = 0.572	0.9606 ± 0.0001
333.15 K, 1017.9 kPa, x2 = 0.219	0.9489 ± 0.0001
333.15 K, 1282.7 kPa, x2 = 0.392	0.9408 ± 0.0001
333.15 K, 1375.1 kPa, x2 = 0.793	0.9475 ± 0.0001
333.15 K, 1389.2 kPa, x2 = 0.572	0.9416 ± 0.0001
333.15 K, 1484.9 kPa, x2 = 0.219	0.9247 ± 0.0001
333.15 K, 1863.4 kPa, x2 = 0.392	0.913 ± 0.0001
333.15 K, 2004.2 kPa, x2 = 0.793	0.9226 ± 0.0001
333.15 K, 2018.3 kPa, x2 = 0.572	0.9138 ± 0.0001
333.15 K, 2137.2 kPa, x2 = 0.219	0.8891 ± 0.0001
333.15 K, 2666.7 kPa, x2 = 0.392	0.8729 ± 0.0001
333.15 K, 2882 kPa, x2 = 0.793	0.8863 ± 0.0001
333.15 K, 2888.7 kPa, x2 = 0.572	0.8738 ± 0.0001
333.15 K, 3016.4 kPa, x2 = 0.219	0.8383 ± 0.0001
333.15 K, 3728.6 kPa, x2 = 0.392	0.8154 ± 0.0001
333.15 K, 4045.3 kPa, x2 = 0.572	0.8174 ± 0.0001
333.15 K, 4063.7 kPa, x2 = 0.793	0.8348 ± 0.0001
333.15 K, 4136 kPa, x2 = 0.219	0.7679 ± 0.0001
333.15 K, 5046.6 kPa, x2 = 0.392	0.7372 ± 0.0001
333.15 K, 5488.2 kPa, x2 = 0.572	0.7409 ± 0.0001
333.15 K, 5565.8 kPa, x2 = 0.793	0.7639 ± 0.0001
343.15 K, 125.5 kPa, x2 = 0.402	0.9971 ± 0.0001
343.15 K, 125.6 kPa, x2 = 0.787	0.996 ± 0.0001
343.15 K, 128.3 kPa, x2 = 0.591	0.9967 ± 0.0001
343.15 K, 135.4 kPa, x2 = 0.18	0.9953 ± 0.0001
343.15 K, 187.3 kPa, x2 = 0.402	0.9939 ± 0.0001
343.15 K, 187.7 kPa, x2 = 0.787	0.9941 ± 0.0001
343.15 K, 191.6 kPa, x2 = 0.591	0.9938 ± 0.0001
343.15 K, 202 kPa, x2 = 0.18	0.9914 ± 0.0001
343.15 K, 279.1 kPa, x2 = 0.402	0.9895 ± 0.0001
343.15 K, 280.1 kPa, x2 = 0.787	0.9911 ± 0.0001
343.15 K, 285.7 kPa, x2 = 0.591	0.9901 ± 0.0001
343.15 K, 300.8 kPa, x2 = 0.18	0.9865 ± 0.0001
343.15 K, 415.1 kPa, x2 = 0.402	0.9834 ± 0.0001
343.15 K, 417.3 kPa, x2 = 0.787	0.9864 ± 0.0001
343.15 K, 425.2 kPa, x2 = 0.591	0.9845 ± 0.0001
343.15 K, 447 kPa, x2 = 0.18	0.9794 ± 0.0001
343.15 K, 615.9 kPa, x2 = 0.402	0.9747 ± 0.0001
343.15 K, 620.2 kPa, x2 = 0.787	0.9794 ± 0.0001
343.15 K, 631.2 kPa, x2 = 0.591	0.9764 ± 0.0001
343.15 K, 662 kPa, x2 = 0.18	0.969 ± 0.0001
343.15 K, 910 kPa, x2 = 0.402	0.962 ± 0.0001
343.15 K, 918.6 kPa, x2 = 0.787	0.9691 ± 0.0001
343.15 K, 933.5 kPa, x2 = 0.591	0.9646 ± 0.0001
343.15 K, 975.3 kPa, x2 = 0.18	0.9536 ± 0.0001
343.15 K, 1336.1 kPa, x2 = 0.402	0.9436 ± 0.0001
343.15 K, 1353.5 kPa, x2 = 0.787	0.9539 ± 0.0001
343.15 K, 1372.4 kPa, x2 = 0.591	0.9474 ± 0.0001
343.15 K, 1426.1 kPa, x2 = 0.18	0.9315 ± 0.0001
343.15 K, 1943.4 kPa, x2 = 0.402	0.9169 ± 0.0001
343.15 K, 1979.2 kPa, x2 = 0.787	0.9318 ± 0.0001
343.15 K, 1999.6 kPa, x2 = 0.591	0.9222 ± 0.0001
343.15 K, 2061.5 kPa, x2 = 0.18	0.8996 ± 0.0001
343.15 K, 2787.5 kPa, x2 = 0.402	0.8786 ± 0.0001
343.15 K, 2861 kPa, x2 = 0.787	0.8998 ± 0.0001
343.15 K, 2876.3 kPa, x2 = 0.591	0.8861 ± 0.0001
343.15 K, 2930.2 kPa, x2 = 0.18	0.8542 ± 0.0001
343.15 K, 3914.8 kPa, x2 = 0.402	0.8243 ± 0.0001
343.15 K, 4057.2 kPa, x2 = 0.591	0.835 ± 0.0001
343.15 K, 4064.7 kPa, x2 = 0.18	0.7916 ± 0.0001
343.15 K, 4064.8 kPa, x2 = 0.787	0.8541 ± 0.0001
343.15 K, 5337.5 kPa, x2 = 0.402	0.7508 ± 0.0001
343.15 K, 5565.1 kPa, x2 = 0.591	0.7652 ± 0.0001
343.15 K, 5631.7 kPa, x2 = 0.787	0.7905 ± 0.0001
